These compounds were tested on T cells isolated from mouse spleen (assay: T cell proliferation inhibition, CFSE flow cytometry, CD3/CD28 activation). Conditions: Mus musculus, T-cell, 72 h, compound 10 nM, CD3/CD28 activated, 3 days, read-out: Proliferation inhibition rate (%).
Type: cell-based
Procedure: To verify the T cell proliferation inhibitory effect of the compounds according to the present invention, the following experiment was performed based on flow cytometry analysis using carboxyfluorescein diacetate succinimidyl ester (CFSE), a fluorescent dye that binds to intracellular molecules via covalent bonds.
Spleens were extracted from 7-week-old C57BL/6 mice, ground, and then separated into single cells using a strainer (40 μm pore size, SPL). Red blood cells were removed using ACK (Ammonium-Chloride-Potassium) lysis buffer to isolate white blood cells.
Finally, using a MACS Magnetic Stand and LS column, T cells were isolated from the spleen.
The T cells isolated from the spleen were resuspended in 1 mL of free medium (RPMI-1640+200 U/mL penicillin+200 μg/mL streptomycin), and 0.3 μL of CFSE (10 mM) was added. The mixture was incubated at 37° C. for 5 minutes.
Free medium (10 mL) was added to stop the reaction, and the cells were centrifuged to obtain the cell pellet.
RPMI 1640 medium containing 10% FBS, 100 U/mL penicillin, 100 μg/mL streptomycin, and resuspended the cells. The cells were then seeded into a 96-well plate at a density of 2×10^5 cells per well and activated with CD3 and CD28 antibodies (0.5 μg/mL each) to activate T cells.
The compound diluted in DMSO was added at concentrations of 10 nM, 100 nM, 1 μM, 10 μM, 30 μM, and 50 μM, with three wells per concentration, and cultured at 37° C. and 5% CO2 for three days. The cells were then analyzed using a FACS Canto instrument.
The proliferation inhibition rate (%) was calculated using the following formula: […]
`Nc1ncccc1C(=O)NCCCCCCCCCCCCN1CCC2CCCCC2C1` (stereo not drawn) [Compound 16, 2-Amino-N-(12-(octahydroisoquinolin-2 (1H)-yl)dodecyl)nicotinamide] gave an inhibition at 0.01 µM of 4.13%. Work on `CC(C)(C)OC(=O)NC1CCN(CCCCCCCCCCCCNC(=O)c2cccnc2N)CC1` [Compound 101, tert-Butyl (1-(12-(2-aminonicotinamido)dodecyl)piperidin-4-yl)carbamate] yielded an inhibition at 0.01 µM of -0.15%.

Same assay, conditions: Mus musculus, T-cell, 72 h, compound 100 nM, CD3/CD28 activated, 3 days, read-out: Proliferation inhibition rate (%)
`Nc1ncccc1C(=O)NCCCCCCCCCCCCN1CCC2CCCCC2C1` (stereo not drawn) [Compound 16, 2-Amino-N-(12-(octahydroisoquinolin-2 (1H)-yl)dodecyl)nicotinamide] gave an inhibition at 0.1 µM of -2.93%. `CC(C)(C)OC(=O)NC1CCN(CCCCCCCCCCCCNC(=O)c2cccnc2N)CC1` [Compound 101, tert-Butyl (1-(12-(2-aminonicotinamido)dodecyl)piperidin-4-yl)carbamate] gave an inhibition at 0.1 µM of 100%.

Same assay, conditions: Mus musculus, T-cell, 72 h, compound 1 μM, CD3/CD28 activated, 3 days, read-out: Proliferation inhibition rate (%)
Work on `Nc1ncccc1C(=O)NCCCCCCCCCCCCN1CCC2CCCCC2C1` (stereo not drawn) [Compound 16, 2-Amino-N-(12-(octahydroisoquinolin-2 (1H)-yl)dodecyl)nicotinamide] yielded an inhibition at 1 µM of 100%. For `CC(C)(C)OC(=O)NC1CCN(CCCCCCCCCCCCNC(=O)c2cccnc2N)CC1` [Compound 101, tert-Butyl (1-(12-(2-aminonicotinamido)dodecyl)piperidin-4-yl)carbamate], the inhibition at 1 µM was 100%.

Same assay, conditions: Mus musculus, T-cell, 72 h, compound 10 μM, CD3/CD28 activated, 3 days, read-out: Proliferation inhibition rate (%)
`Nc1ncccc1C(=O)NCCCCCCCCCCCCN1CCC2CCCCC2C1` (stereo not drawn) [Compound 16, 2-Amino-N-(12-(octahydroisoquinolin-2 (1H)-yl)dodecyl)nicotinamide] was tested, and the inhibition at 10 µM was 100%. In the case of `CC(C)(C)OC(=O)NC1CCN(CCCCCCCCCCCCNC(=O)c2cccnc2N)CC1` [Compound 101, tert-Butyl (1-(12-(2-aminonicotinamido)dodecyl)piperidin-4-yl)carbamate], the inhibition at 10 µM is reported as 100%.

Same assay, conditions: Mus musculus, T-cell, 72 h, compound 30 μM, CD3/CD28 activated, 3 days, read-out: Proliferation inhibition rate (%)
Compound `Nc1ncccc1C(=O)NCCCCCCCCCCCCN1CCC2CCCCC2C1` (stereo not drawn) [Compound 16, 2-Amino-N-(12-(octahydroisoquinolin-2 (1H)-yl)dodecyl)nicotinamide] has an inhibition at 30 µM of 100%. Compound `CC(C)(C)OC(=O)NC1CCN(CCCCCCCCCCCCNC(=O)c2cccnc2N)CC1` [Compound 101, tert-Butyl (1-(12-(2-aminonicotinamido)dodecyl)piperidin-4-yl)carbamate] has an inhibition at 30 µM of 100%.

Same assay, conditions: Mus musculus, T-cell, 72 h, compound 50 μM, CD3/CD28 activated, 3 days, read-out: Proliferation inhibition rate (%)
With `Nc1ncccc1C(=O)NCCCCCCCCCCCCN1CCC2CCCCC2C1` (stereo not drawn) [Compound 16, 2-Amino-N-(12-(octahydroisoquinolin-2 (1H)-yl)dodecyl)nicotinamide] the inhibition at 50 µM was 100%. Compound `CC(C)(C)OC(=O)NC1CCN(CCCCCCCCCCCCNC(=O)c2cccnc2N)CC1` [Compound 101, tert-Butyl (1-(12-(2-aminonicotinamido)dodecyl)piperidin-4-yl)carbamate] has an inhibition at 50 µM of 100%.

Same assay, conditions: compound 10 nM, CD3/CD28 activated, 3 days
With `Cc1ccc(OC2CCN(CCCCCCCCCCCCNC(=O)c3cccnc3N)CC2)cc1` [Compound 51, 2-Amino-N-(12-(4-(p-tolyloxy)piperidin-1-yl)dodecyl) nicotinamide] the “Proliferation inhibition rate (%)” value was 0.77%.

Same assay, conditions: compound 100 nM, CD3/CD28 activated, 3 days
For `Cl.Nc1ncccc1C(=O)NCCCCCCCCCCCCN1CC[C@H](N)C1` [Compound 50, (S)-2-Amino-N-(12-(3-aminopyrrolidin-1-yl)dodecyl) nicotinamide Hydrochloride], the “Proliferation inhibition rate (%)” value was 100.00%. For `Nc1ncccc1C(=O)NCCCCCCCCCCCCN1CCC(F)C1` (stereo not drawn) [Compound 26, 2-Amino-N-(12-(3-fluoropyrrolidin-1-yl)dodecyl) nicotinamide], the “Proliferation inhibition rate (%)” value was 100.00%. `CC1CCN(CCCCCCCCCCCCNC(=O)c2cccnc2N)C1` (stereo not drawn) [Compound 24, 2-Amino-N-(12-(3-methylpyrrolidin-1-yl)dodecyl) nicotinamide] was tested, and the “Proliferation inhibition rate (%)” value was 100.00%. `CC1CNCCN1CCCCCCCCCCCCNC(=O)c1cccnc1N` (stereo not drawn) [Compound 35, 2-Amino-N-(12-(2-methylpiperazin-1-yl)dodecyl) nicotinamide] was tested, and the “Proliferation inhibition rate (%)” value was 100.00%.

Same assay, conditions: compound 1 μM, CD3/CD28 activated, 3 days
In the case of `Cl.Nc1ncccc1C(=O)NCCCCCCCCCCCCN1CC[C@H](N)C1` [Compound 50, (S)-2-Amino-N-(12-(3-aminopyrrolidin-1-yl)dodecyl) nicotinamide Hydrochloride], the “Proliferation inhibition rate (%)” value is reported as 100.00%. With `Nc1ncccc1C(=O)NCCCCCCCCCCCCN1CCC(F)C1` (stereo not drawn) [Compound 26, 2-Amino-N-(12-(3-fluoropyrrolidin-1-yl)dodecyl) nicotinamide] the “Proliferation inhibition rate (%)” value was 100.00%. `CC1CCN(CCCCCCCCCCCCNC(=O)c2cccnc2N)C1` (stereo not drawn) [Compound 24, 2-Amino-N-(12-(3-methylpyrrolidin-1-yl)dodecyl) nicotinamide] was tested, and the “Proliferation inhibition rate (%)” value was 100.00%. `CC1CNCCN1CCCCCCCCCCCCNC(=O)c1cccnc1N` (stereo not drawn) [Compound 35, 2-Amino-N-(12-(2-methylpiperazin-1-yl)dodecyl) nicotinamide] was tested, and the “Proliferation inhibition rate (%)” value was 100.00%. With `Cc1ccc(OC2CCN(CCCCCCCCCCCCNC(=O)c3cccnc3N)CC2)cc1` [Compound 51, 2-Amino-N-(12-(4-(p-tolyloxy)piperidin-1-yl)dodecyl) nicotinamide] the “Proliferation inhibition rate (%)” value was 100.00%.

Same assay, conditions: compound 10 μM, CD3/CD28 activated, 3 days
With `Cl.Nc1ncccc1C(=O)NCCCCCCCCCCCCN1CC[C@H](N)C1` [Compound 50, (S)-2-Amino-N-(12-(3-aminopyrrolidin-1-yl)dodecyl) nicotinamide Hydrochloride] the “Proliferation inhibition rate (%)” value was 100.00%. In the case of `Nc1ncccc1C(=O)NCCCCCCCCCCCCN1CCC(F)C1` (stereo not drawn) [Compound 26, 2-Amino-N-(12-(3-fluoropyrrolidin-1-yl)dodecyl) nicotinamide], the “Proliferation inhibition rate (%)” value is reported as 100.00%. With `CC1CCN(CCCCCCCCCCCCNC(=O)c2cccnc2N)C1` (stereo not drawn) [Compound 24, 2-Amino-N-(12-(3-methylpyrrolidin-1-yl)dodecyl) nicotinamide] the “Proliferation inhibition rate (%)” value was 100.00%. For `CC1CNCCN1CCCCCCCCCCCCNC(=O)c1cccnc1N` (stereo not drawn) [Compound 35, 2-Amino-N-(12-(2-methylpiperazin-1-yl)dodecyl) nicotinamide], the “Proliferation inhibition rate (%)” value was 100.00%. With `Cc1ccc(OC2CCN(CCCCCCCCCCCCNC(=O)c3cccnc3N)CC2)cc1` [Compound 51, 2-Amino-N-(12-(4-(p-tolyloxy)piperidin-1-yl)dodecyl) nicotinamide] the “Proliferation inhibition rate (%)” value was 100.00%.

Same assay, conditions: compound 30 μM, CD3/CD28 activated, 3 days
With `Cl.Nc1ncccc1C(=O)NCCCCCCCCCCCCN1CC[C@H](N)C1` [Compound 50, (S)-2-Amino-N-(12-(3-aminopyrrolidin-1-yl)dodecyl) nicotinamide Hydrochloride] the “Proliferation inhibition rate (%)” value was 100.00%. With `Nc1ncccc1C(=O)NCCCCCCCCCCCCN1CCC(F)C1` (stereo not drawn) [Compound 26, 2-Amino-N-(12-(3-fluoropyrrolidin-1-yl)dodecyl) nicotinamide] the “Proliferation inhibition rate (%)” value was 100.00%. With `CC1CCN(CCCCCCCCCCCCNC(=O)c2cccnc2N)C1` (stereo not drawn) [Compound 24, 2-Amino-N-(12-(3-methylpyrrolidin-1-yl)dodecyl) nicotinamide] the “Proliferation inhibition rate (%)” value was 100.00%. For `CC1CNCCN1CCCCCCCCCCCCNC(=O)c1cccnc1N` (stereo not drawn) [Compound 35, 2-Amino-N-(12-(2-methylpiperazin-1-yl)dodecyl) nicotinamide], the “Proliferation inhibition rate (%)” value was 100.00%. With `Cc1ccc(OC2CCN(CCCCCCCCCCCCNC(=O)c3cccnc3N)CC2)cc1` [Compound 51, 2-Amino-N-(12-(4-(p-tolyloxy)piperidin-1-yl)dodecyl) nicotinamide] the “Proliferation inhibition rate (%)” value was 100.00%.

Same assay, conditions: compound 50 μM, CD3/CD28 activated, 3 days
With `Cl.Nc1ncccc1C(=O)NCCCCCCCCCCCCN1CC[C@H](N)C1` [Compound 50, (S)-2-Amino-N-(12-(3-aminopyrrolidin-1-yl)dodecyl) nicotinamide Hydrochloride] the “Proliferation inhibition rate (%)” value was 100.00%. `Nc1ncccc1C(=O)NCCCCCCCCCCCCN1CCC(F)C1` (stereo not drawn) [Compound 26, 2-Amino-N-(12-(3-fluoropyrrolidin-1-yl)dodecyl) nicotinamide] was tested, and the “Proliferation inhibition rate (%)” value was 100.00%. For `CC1CCN(CCCCCCCCCCCCNC(=O)c2cccnc2N)C1` (stereo not drawn) [Compound 24, 2-Amino-N-(12-(3-methylpyrrolidin-1-yl)dodecyl) nicotinamide], the “Proliferation inhibition rate (%)” value was 100.00%. With `CC1CNCCN1CCCCCCCCCCCCNC(=O)c1cccnc1N` (stereo not drawn) [Compound 35, 2-Amino-N-(12-(2-methylpiperazin-1-yl)dodecyl) nicotinamide] the “Proliferation inhibition rate (%)” value was 100.00%. In the case of `Cc1ccc(OC2CCN(CCCCCCCCCCCCNC(=O)c3cccnc3N)CC2)cc1` [Compound 51, 2-Amino-N-(12-(4-(p-tolyloxy)piperidin-1-yl)dodecyl) nicotinamide], the “Proliferation inhibition rate (%)” value is reported as 100.00%.

The compounds below were run on Human B Lymphocyte cell line, SU-DHL-8 (assay: Relative cell viability, CCK-8, SU-DHL-8). Conditions: SU-DHL-8, 1 μM, 48 hours.
Type: cell-based
Procedure: Human-derived B lymphoma cell line SU-DHL-8 (Cat. #CRL-2961) purchased from ATCC was cultured in RPMI-1640 medium containing 10% FBS, 100 U/mL penicillin, and 100 μg/mL streptomycin.
The cell culture medium was then harvested, centrifuged at 1,300 rpm for 5 minutes, and the supernatant was removed. The cells were resuspended in the same medium and dispensed into a 96-well plate (Costar 96-well cell culture plate, Corning) at 90 μL per well, resulting in the conditions specified in Table 5.
Then, 10 μL of CCK-8 was added to each well, and the plates were incubated again at 37° C. in a 5% CO2 incubator for 4 hours.
In other words, when the survival rate of untreated cells (DMSO) is set at 100%, the relative cell survival rate in each group treated with the drug at different concentrations is indicated.
With `Cl.Nc1ncccc1C(=O)NCCCCCCCCCCCCN1CC[C@H](N)C1` [Compound 50, (S)-2-Amino-N-(12-(3-aminopyrrolidin-1-yl)dodecyl) nicotinamide Hydrochloride] the “Relative cell viability (%)” value was 9.20%. With `Nc1ncccc1C(=O)NCCCCCCCCCCCCN1CCC(F)C1` (stereo not drawn) [Compound 26, 2-Amino-N-(12-(3-fluoropyrrolidin-1-yl)dodecyl) nicotinamide] the “Relative cell viability (%)” value was 1.70%.

Same assay, conditions: SU-DHL-8, 10 μM, 48 hours
In the case of `CC1CNCCN1CCCCCCCCCCCCNC(=O)c1cccnc1N` (stereo not drawn) [Compound 35, 2-Amino-N-(12-(2-methylpiperazin-1-yl)dodecyl) nicotinamide], the “Relative cell viability (%)” value is reported as 0.64%.

Same assay, conditions: SU-DHL-8, 30 μM, 48 hours
With `Nc1ncccc1C(=O)NCCCCCCCCCCCCN1CCC(F)C1` (stereo not drawn) [Compound 26, 2-Amino-N-(12-(3-fluoropyrrolidin-1-yl)dodecyl) nicotinamide] the “Relative cell viability (%)” value was 0.05%. `CC1CCN(CCCCCCCCCCCCNC(=O)c2cccnc2N)C1` (stereo not drawn) [Compound 24, 2-Amino-N-(12-(3-methylpyrrolidin-1-yl)dodecyl) nicotinamide] was tested, and the “Relative cell viability (%)” value was 0.62%. With `CC1CNCCN1CCCCCCCCCCCCNC(=O)c1cccnc1N` (stereo not drawn) [Compound 35, 2-Amino-N-(12-(2-methylpiperazin-1-yl)dodecyl) nicotinamide] the “Relative cell viability (%)” value was 0.42%. `Cc1ccc(OC2CCN(CCCCCCCCCCCCNC(=O)c3cccnc3N)CC2)cc1` [Compound 51, 2-Amino-N-(12-(4-(p-tolyloxy)piperidin-1-yl)dodecyl) nicotinamide] was tested, and the “Relative cell viability (%)” value was 0.89%.

Same assay, conditions: SU-DHL-8, 50 μM, 48 hours
`Cc1ccc(OC2CCN(CCCCCCCCCCCCNC(=O)c3cccnc3N)CC2)cc1` [Compound 51, 2-Amino-N-(12-(4-(p-tolyloxy)piperidin-1-yl)dodecyl) nicotinamide] was tested, and the “Relative cell viability (%)” value was 0.48%.
